Where two headings read alike, the source gives them in different places. Square brackets hold non-standard residues; d marks the D form. Peptide text beside a SMILES is read from it. * marks the point of attachment. DOTA = O=C(O)CN1CCN(CC(=O)O)CCN(CC(=O)*)CCN(CC(=O)O)CC1; Phe(3,4,5-F3) = N[C@@H](Cc1cc(F)c(F)c(F)c1)C(=O)O; Phe(3,4-F2) = N[C@@H](Cc1ccc(F)c(F)c1)C(=O)O; Phe(4-Ac) = CC(=O)c1ccc(C[C@H](N)C(=O)O)cc1; NMe1Nal = CN[C@@H](Cc1cccc2ccccc12)C(=O)O; NMeNle = CCCC[C@H](NC)C(=O)O; Sar = CNCC(=O)O
Tests used:
in vitro = in vitro ADME, mouse; conditions: mouse, tissue homogenate, pH 7.3
Experimental: Drug detoxification, drug metabolism and metabolic stability are important determinants of the efficacy of theranostic candidates in clinical settings. To assess metabolic stability, radiolabelled Compounds [^68Ga]Ga-1-4 and comparative example-2 ([^68Ga]Ga-Cmp ex-2) were challenged by incubation in either human serum, mouse liver or kidney homogenates and HEPES buffer as a negative control. Duplicate samples (750-900 pmol/mL) were incubated at 37° C. with pooled human serum, 15% mouse kidney homogenate, 30% mouse liver homogenate or 20 mM HEPES, pH 7.3 (control). Human blood was collected and serum prepared using SSTII advance vacutainer tubes according to the manufacturer's instructions (Becton Dickinson, New Jersey, USA). Mouse kidney and liver homogenates were prepared by washing the tissues in ice-cold HEPES buffer, pH 7.3 and placing them in pre-chilled tubes containing HEPES buffer and 2.38 mm metal beads (Mo-Bio Laboratories, Hilden, Germany). Tissues were homogenised using the PowerLyzer24 homogeniser (Qiagen, Hilden, Germany) according to the manufacturer's instructions. Ga-68 radiolabelled peptides were incubated with the various lysates at 37° C. and samples were collected at 15, 30, 60 and 90 min. Reactions were terminated by addition of an equal volume of acetonitrile and centrifugation for 2 min at 15,000 rpm. Supernatants were diluted in water before being analysed by HPLC using a Kinetex C18 XB column (5 μm 4.6×150 mm), eluted at 1.5 mL/min of gradient 20-60% MeCN in water containing 0.1% formic acid over 7 min.

[1] = target: T1, human full-length CCK-2 receptor (Homo sapiens, UniProt P32239); experiment: Competitive ligand binding against [^177Lu]Lu-DOTA-CP04 in A431-CCK-2R cells
T1 construct: stably transfected to over-express the human full-length CCK-2 receptor (A431-CCK-2R); expressed in transfected cells
T1 sequence (P32239 1-447): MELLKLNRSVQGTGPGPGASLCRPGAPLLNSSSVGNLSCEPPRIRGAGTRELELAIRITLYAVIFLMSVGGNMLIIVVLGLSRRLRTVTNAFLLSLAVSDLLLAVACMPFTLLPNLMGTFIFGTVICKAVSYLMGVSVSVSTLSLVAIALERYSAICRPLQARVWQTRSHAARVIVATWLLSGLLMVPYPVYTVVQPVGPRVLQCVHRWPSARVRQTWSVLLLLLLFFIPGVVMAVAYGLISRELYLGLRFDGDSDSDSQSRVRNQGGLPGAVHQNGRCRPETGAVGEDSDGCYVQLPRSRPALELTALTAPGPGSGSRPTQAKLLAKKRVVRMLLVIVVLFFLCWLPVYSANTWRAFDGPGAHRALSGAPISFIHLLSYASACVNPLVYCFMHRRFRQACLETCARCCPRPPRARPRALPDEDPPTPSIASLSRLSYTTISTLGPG
Experimental: CCK-2 receptor binding experiments were conducted using A431 (human epidermoid carcinoma) cells stably transfected to over-express the human full-length CCK-2 receptor (A431-CCK-2R). As a negative control, A431 cells stably transfected with an empty vector were analysed simultaneously (A431-EV). A431 cells were maintained in DMEM (Gibco, Australia) media supplemented with 10% foetal calf serum and 250 μg/mL G418 as described previously (Aloj L, et al., J Nucl Med., 2004, Mar; 45(3), 485-94). The affinity of peptides for the CCK-2R was evaluated using competitive binding assays against [^177Lu]Lu-DOTA-CP04 in A431-CCK-2R cells. Briefly, 48 h before the experiment cells were plated at a density of 650,000 cells per well in 6 well plates. On the day of the experiment the peptides were diluted in DMEM supplemented with 1% foetal calf serum to at least 7 different concentrations (0-400 nM) and approximately 50,000 cpm of [^177Lu]Lu-DOTA-CP04 was added to each dilution. Cells were washed twice in ice-cold binding buffer (DMEM supplemented with 1% foetal calf serum) and resuspended in 1.5 mL of the pre-prepared compound mix before being incubated at 37° C. for 1 h. Post-incubation the media was removed and kept for analysis (unbound fraction) and the cells were washed twice in ice-cold binding buffer, which was pooled with the unbound fraction. Finally, 1 M NaOH was added to the cells and allowed to incubate for 5 min before lysates were collected (bound fraction). A small volume of lysate was kept aside to determine protein concentration using the Pierce® BCA protein assay kit (Thermo Fisher, Australia). All samples were analysed using the Perkin Elmer 2480 Wizard2™ gamma counter (PerkinElmer, Massachusetts, USA) and were normalised according to protein concentration. Half-maximal inhibitory concentrations (IC50) were determined using nonlinear regression calculated using GraphPad Prism Software (GraphPad Software, California, USA).
The compounds were evaluated for their ability to disrupt the binding between CCK-2 receptor (CCK-2R) and [^177Lu]Lu-DOTA-CP04 using the methodology described above and compared to comparative example-2 (FIG. 2; Table 5).

[2] = modified peptides based on Peptide C (Table 4), read-out: IC50

CCCC[C@@H](C(=O)N[C@@H](CC(=O)O)C(=O)N(C)[C@@H](Cc1cccc2ccccc12)C(N)=O)N(C)C(=O)[C@H](Cc1c[nH]c2ccccc12)NC(=O)CN(C)C(=O)[C@H](Cc1ccc(O)cc1)NC(=O)[C@H](C)NC(=O)[C@@H](CCC(=O)O)NC(=O)[C@@H](CCC(=O)O)NC(=O)[C@@H](CCC(=O)O)NC(=O)[C@@H](C)NC(=O)[C@@H](CCC(=O)O)NC(=O)[C@@H](CCC(=O)O)NC(=O)CN1CCN(CC(=O)O)CCN(CC(=O)O)CCN(CC(=O)O)CC1 [Compound 4] ({DOTA}-[dE][dE][dA][dE][dE][dE]AY[Sar]W[NMeNle]D[NMe1Nal]-NH2)
remaining at 1.5 h (in vitro): 100%

CCCC[C@@H](C(=O)N[C@@H](CC(=O)O)C(=O)N[C@@H](Cc1ccc(C(C)=O)cc1)C(N)=O)N(C)C(=O)[C@H](Cc1c[nH]c2ccccc12)NC(=O)CN(C)C(=O)[C@H](Cc1ccc(O)cc1)NC(=O)[C@H](C)NC(=O)[C@@H](CCC(=O)O)NC(=O)[C@@H](CCC(=O)O)NC(=O)[C@@H](CCC(=O)O)NC(=O)[C@@H](C)NC(=O)[C@@H](CCC(=O)O)NC(=O)[C@H](N)CCC(=O)O [V] (H-[dE][dE][dA][dE][dE][dE]AY[Sar]W[NMeNle]D[Phe(4-Ac)]-NH2; N-terminus assumed)
IC50 [1, 2]: 0.948 ± 0.052 nM

CCCC[C@@H](C(=O)N[C@@H](CC(=O)O)C(=O)N[C@@H](Cc1ccccc1)C(N)=O)N(C)C(=O)[C@H](Cc1c[nH]c2ccccc12)NC(=O)CN(C)C(=O)[C@H](Cc1ccc(O)cc1)NC(=O)[C@H](C)NC(=O)[C@@H](CCC(=O)O)NC(=O)[C@@H](CCC(=O)O)NC(=O)[C@@H](CCC(=O)O)NC(=O)[C@@H](C)NC(=O)[C@@H](CCC(=O)O)NC(=O)[C@@H](CCC(=O)O)NC(=O)CN1CCN(CC(=O)O)CCN(CC(=O)O)CCN(CC(=O)O)CC1 [^natGa-3, metal not drawn] ({DOTA}-[dE][dE][dA][dE][dE][dE]AY[Sar]W[NMeNle]DF-NH2)
IC50 ([1]; ^natGa chelated DOTA-compounds based on Peptide C (Table 5), read-out: IC50): 0.042 nM

CCCC[C@@H](C(=O)N[C@@H](CC(=O)O)C(=O)N[C@@H](Cc1cc(F)c(F)c(F)c1)C(N)=O)N(C)C(=O)[C@H](Cc1c[nH]c2ccccc12)NC(=O)CN(C)C(=O)[C@H](Cc1ccc(O)cc1)NC(=O)[C@H](C)NC(=O)[C@@H](CCC(=O)O)NC(=O)[C@@H](CCC(=O)O)NC(=O)[C@@H](CCC(=O)O)NC(=O)[C@@H](C)NC(=O)[C@@H](CCC(=O)O)NC(=O)[C@H](N)CCC(=O)O [N] (H-[dE][dE][dA][dE][dE][dE]AY[Sar]W[NMeNle]D[Phe(3,4,5-F3)]-NH2; N-terminus assumed)
IC50 [1, 2]: 0.444 ± 0.032 nM

CCCC[C@@H](C(=O)N[C@@H](CC(=O)O)C(=O)N[C@@H](Cc1ccc(F)c(F)c1)C(N)=O)N(C)C(=O)[C@H](Cc1c[nH]c2ccccc12)NC(=O)CN(C)C(=O)[C@H](Cc1ccc(O)cc1)NC(=O)[C@H](C)NC(=O)[C@@H](CCC(=O)O)NC(=O)[C@@H](CCC(=O)O)NC(=O)[C@@H](CCC(=O)O)NC(=O)[C@@H](C)NC(=O)[C@@H](CCC(=O)O)NC(=O)[C@H](N)CCC(=O)O [Peptide S] (H-[dE][dE][dA][dE][dE][dE]AY[Sar]W[NMeNle]D[Phe(3,4-F2)]-NH2; N-terminus assumed)
IC50 [1]: 2.66 ± 0.226 nM
